# Source: US6127136A, “Detection of dioxin-like compounds by detection of transformed Ah receptor/ARNT complex” (Paracelsian, Inc., priority 1996, dated 2000)
# “And” between values parts separate entries of the source, which are not always exact repeats. Equal values may be shown once.
# Target: T1, transformed Ah receptor (Cavia porcellus, UniProt Q6J287)
# T1 construct: TCDD-transformed receptor captured as heterodimer on DRE-oligonucleotide gel; recombinant ARNT added in some protocols
# Assay: mini-Ah immunoassay (DRE affinity gel, dot-blot spot density), with or without added recombinant ARNT
# Format: biochemical, guinea pig (male Hartley, hepatic cytosol)
# Experimental: Male Hartley guinea pigs weighing 300-350 g were obtained from Cornell Research Animal Resources, Cornell University, Ithaca, N.Y. Guinea pigs were anaesthetized and killed with carbon dioxide. Livers were perfused in situ with 100 mL ice-cold perfusion buffer, excised, trimmed of connective tissue, poorly perfused liver and gall bladder and weighed. The liver was minced and five mL of ice-cold HEDG per gram liver were added and the whole homogenized in a 50 mL homogenizer with teflon pestle using at 200 rpm for a total of seven strokes. Crude homogenate was centrifuged at 12,500 RPM in 50 mL tubes in a JA17 rotor in a Beckman J2-MI preparative centifuge at 4 degrees C for 20 minutes.
# Procedure for the mini-Ah Immuno Assay
# Preparation of Buffers: 155 uM TCDD stock was prepared by dissolving 1 mg 2,3,7,8-tetrachloro-dibenzo-p-dioxin (Cambridge Isotope Labs) in 20 mL DMSO (dimethylsulfoxide) overnight. 10 uM working dilution of TCDD was prepared by diluting 0.129 mL of the stock with 1.871 mL DMSO. 4M NaCl/HEDG was prepared by adding 116.88 g sodium chloride to 300 mL HEDG and adjusting the volume to 500 mL with HEDG. 0.3 M NaCl/HEDG was prepared by diluting 1.5 mL 4 M NaCl/HEDG to 20 mL with HEDG 0.6 M NaCl/HEDG was prepared by diluting 3.0 mL 4 M NaCl/HEDG to 20 mL with HEDG TBST was prepared by dissolving 1.18 g Tris-base, 6.35 g Tris-HCl, 8.76 g NaCL, and 2 mL Tween 20 in 800 mL water, adjusting volume to 1000 mL. Blocker was prepared by dissolving 10 g non-fat dry milk (Carnation) in 200 mL TBST. AP development buffer was prepared by dissolving 11 g Tris-base, 1.6 g Tris-HCl, 5.84 g Sodium Chloride, 10.2 g Magnesium Chloride hexahydrate, in 800 mL water and adjusting the volume to 1000 mL. BCIP stock was prepared by dissolving 100 mg BCIP (5-Bromo-4-Chloro-3-Indolyl Phosphate) in 2 mL N,N-Dimethylformamide, aliquoting into 66 uL portions, and freezing at -20 C until use. NBT stock was prepared by dissolving 250 mg NBT (Nitro Blue Tetrazolium) in 25 mL water, aliquoting into 660 uL proportions, and storing at -20 C until use. BCIP/NBT developer was prepared immediately before use by mixing one 66 uL aliquot of BCIP and one 660 uL aliquot of NBT in 20 mL AP development buffer.
# For a typical mini-Ah immunoassay utilizing 12 samples, 5 mL of Transformed Ah Receptor Affinity Gel slurry described above was pipeted into a 50 mL conical tube. The slurry was washed with 40 mL HEDG and centifuged at 1000 g for 5 min, the supernatant withdrawn and discarded, the pellet washed with 40 mL HEDG, and centrifuged again. After the second centrifugation all but 5 mL of supernatant was withdrawn and the gel thus resuspended in the original volume. 10 mL guinea pig hepatic cytosol was thawed. The thawed cytosol was pooled and then divided into two 5 mL groups and treated with either 5 uL DMSO or 5 uL 10 uM TCDD in DMSO.
# Assembly of transformation mixture:In the preferred embodiment of the mini-Ah immunoassay, each sample was composed of one 1.5 mL microfuge tube with the following sequential additions: 90 uL 4 M NaCl/HEDG, 400 uL Transformed Ah Receptor Affinity Gel slurry and 800 uL cytosol (treated with DMSO or TCDD as described above). The three components described above are the minimum components added at that step of the mini-Ah immunoassay. Any additional materials, such as ARNT, anti-ARNT and anti-Rabbit/alkaline phosphatase conjugate, were sometimes also added at this time as described in the specific examples. After assembly of the samples, the tubes were capped and the samples incubated at room temperature for 2 hours with gentle rocking to allow transformation of the Ah receptor to take place, interaction of transformed Ah receptor and ARNT, and binding of the transformed Ah receptor as a heteromer to the DRE oligonucleotide contained on the Transformed Ah Receptor Affinity Gel.
# Isolation transformed Ah receptor: After the 2 hour incubation the mixtures were pipetted into the empty column barrels and allowed to drain. […]
# T1 sequence (Q6J287 10-846): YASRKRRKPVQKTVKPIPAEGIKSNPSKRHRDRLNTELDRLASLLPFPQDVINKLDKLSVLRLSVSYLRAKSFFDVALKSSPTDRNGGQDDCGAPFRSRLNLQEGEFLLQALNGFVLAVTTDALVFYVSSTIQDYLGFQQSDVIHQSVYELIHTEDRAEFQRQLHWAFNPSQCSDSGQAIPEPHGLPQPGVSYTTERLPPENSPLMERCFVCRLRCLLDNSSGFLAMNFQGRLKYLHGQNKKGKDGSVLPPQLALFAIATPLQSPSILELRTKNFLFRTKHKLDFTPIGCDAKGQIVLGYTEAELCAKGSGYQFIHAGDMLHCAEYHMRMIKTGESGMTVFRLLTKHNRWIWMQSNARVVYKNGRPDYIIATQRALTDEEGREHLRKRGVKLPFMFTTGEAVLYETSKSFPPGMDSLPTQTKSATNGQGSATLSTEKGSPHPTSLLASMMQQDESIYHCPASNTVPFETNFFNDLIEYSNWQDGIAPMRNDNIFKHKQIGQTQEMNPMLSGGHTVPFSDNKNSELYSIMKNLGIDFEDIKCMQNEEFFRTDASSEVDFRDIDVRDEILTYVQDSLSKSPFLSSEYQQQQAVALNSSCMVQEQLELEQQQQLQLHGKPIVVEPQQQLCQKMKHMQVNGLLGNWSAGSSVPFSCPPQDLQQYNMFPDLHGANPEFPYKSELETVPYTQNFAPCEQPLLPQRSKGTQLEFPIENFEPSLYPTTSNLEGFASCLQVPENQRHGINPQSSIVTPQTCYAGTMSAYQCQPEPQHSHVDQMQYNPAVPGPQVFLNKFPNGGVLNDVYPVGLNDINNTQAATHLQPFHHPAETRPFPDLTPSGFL
# T1 sequence (Q0WXX3 1-790 partner): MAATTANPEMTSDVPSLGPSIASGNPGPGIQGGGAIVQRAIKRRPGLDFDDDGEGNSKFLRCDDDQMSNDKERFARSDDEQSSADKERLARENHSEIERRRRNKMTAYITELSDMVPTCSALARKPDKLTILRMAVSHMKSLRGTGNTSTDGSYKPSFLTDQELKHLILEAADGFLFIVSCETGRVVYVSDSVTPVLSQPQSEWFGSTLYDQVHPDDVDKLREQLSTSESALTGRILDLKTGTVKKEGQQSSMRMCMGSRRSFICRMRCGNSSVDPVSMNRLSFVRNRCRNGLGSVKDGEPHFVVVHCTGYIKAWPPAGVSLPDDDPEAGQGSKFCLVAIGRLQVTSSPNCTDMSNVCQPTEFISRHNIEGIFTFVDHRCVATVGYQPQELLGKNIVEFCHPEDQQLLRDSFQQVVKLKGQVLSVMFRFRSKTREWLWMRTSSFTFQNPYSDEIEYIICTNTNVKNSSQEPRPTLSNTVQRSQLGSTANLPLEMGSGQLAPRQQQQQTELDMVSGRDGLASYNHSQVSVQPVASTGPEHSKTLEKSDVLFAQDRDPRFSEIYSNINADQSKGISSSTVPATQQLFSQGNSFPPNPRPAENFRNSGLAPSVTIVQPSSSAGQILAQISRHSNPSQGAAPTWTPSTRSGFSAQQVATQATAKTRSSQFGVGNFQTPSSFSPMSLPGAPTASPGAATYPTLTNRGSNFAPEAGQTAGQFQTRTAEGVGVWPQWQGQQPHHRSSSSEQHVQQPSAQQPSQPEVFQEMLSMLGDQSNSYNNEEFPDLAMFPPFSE
smiles,measurement,setting,value
"Clc1cc2c(cc1Cl)Oc1cc(Cl)c(Cl)cc1O2 [TCDD, 2,3,7,8-tetrachlorodibenzo-p-dioxin]","spot density, difference TCDD treated (+) minus DMSO treated (-)","Example 1, arnt spike 2 ug",224497
same,"spot density, average","Example 1, arnt spike 2 ug, TCDD (+), average of two replicates",303679
same,spot density,"Example 1, arnt spike 2 ug, TCDD (+), single replicate",308831 and 298526
same,"spot density, difference TCDD treated (+) minus DMSO treated (-)","Example 1, normal protocol, no ARNT added",49541
same,"spot density, average","Example 1, normal protocol, no ARNT added, TCDD (+), average of two replicates",149868
same,spot density,"Example 1, normal protocol, no ARNT added, TCDD (+), single replicate",157620 and 142115
same,"spot density, difference TCDD treated (+) minus DMSO treated (-)","Example 2, 0.5 ug arnt",129849
same,"spot density, average","Example 2, 0.5 ug arnt, TCDD (+), average of two replicates",174210
same,spot density,"Example 2, 0.5 ug arnt, TCDD (+), single replicate",184049 and 164371
same,"spot density, difference TCDD treated (+) minus DMSO treated (-)","Example 2, 2.0 ug arnt",209747
same,"spot density, average","Example 2, 2.0 ug arnt, TCDD (+), average of two replicates",270107
same,spot density,"Example 2, 2.0 ug arnt, TCDD (+), single replicate",281912 and 258302
same,"density, difference TCDD treated (+) minus DMSO treated (-)","Example 3, normal, anti-Ah receptor probe",77724
same,"density, average","Example 3, normal, anti-Ah receptor probe, TCDD (+), average of two replicates",169988
same,density,"Example 3, normal, probed with anti-Ah receptor/alkaline phosphatase, TCDD (+), single replicate",177175 and 162801
